Laboratory results: paper PMC10574094, “Discovery of a SHP2 Degrader with In Vivo Anti-Tumor Activity” (Molecules, 2023)
Several values for one entry are separate records, joined by “and”; a condition that tells them apart may be missing. Equal values may be shown once. Entries after “also recorded” stand apart in the source; their conditions may differ.

Key:
[1] = Pharmacokinetics in mice, single IP injection; type: in vivo; conditions: for Plasma concentration / concentration at 0.5 h / concentration at 1 h / concentration at 2 h / concentration at 3 h / concentration at 6 h: individual animals; for concentration at 0.5 h / concentration at 1 h / concentration at 2 h / concentration at 3 h / concentration at 6 h / Cmax / half-life / AUC / Tmax: plasma; for concentration at 0.5 h / concentration at 1 h / concentration at 2 h / concentration at 3 h / concentration at 6 h: intraperitoneal; for Cmax / half-life / AUC / Tmax / t1/2: mice
Experimental: (§1) Experiments on mice were carried out in accordance with the regulations of the Institutional Animal Care and Use Committees at Purdue University. All mice were housed under pathogen-free conditions in the animal facility and received autoclaved water and food. Eight to ten weeks-old Nude mice were used in the study.
For pharmacokinetic studies, mice were administered a single dose of P9 at 25 or 50 mg/kg via IP injection. Blood samples were collected through the tail vein at indicated time points after injection. Isoflurane was used as an anesthetic. All blood samples were centrifuged at 1500 g for 5 min, and plasma was separated and stored at –80 °C until analysis by a validated method based on reversed-phase liquid chromatography coupled to mass-spectrometric detection (LC/MS) using a previously published procedure.

[2] = Tolerability and body weight in xenograft study; type: in vivo; conditions: mice, 25 mg/kg or 50 mg/kg daily IP
Experimental: as §1
(§2) For the xenograft tumor study, KYSE-520 cells were suspended in PBS and a total of 3 × 10^6 cells (100 μL) were subcutaneously implanted into both the left and right flank using a 27-gauge needle. Tumor volume was calculated using the formula V = (W^2 × L)/2 for caliper measurements. Once the tumor volume reaches 200 mm^3, daily intraperitoneal injection of either control, 25 mg/kg or 50 mg/kg of compound P9 was performed. Mice were sacrificed after injection for 18 days, and tumors were collected for biochemical analysis.

pERK1/2 = pERK1/2 inhibition by Western blotting in KYSE-520 cells; type: cell-based; conditions: Homo sapiens, 16 h
Experimental: HEK293, SKBR3, U2OS, MCF7 and A549 cells were grown in DMEM supplemented with 10% FBS, penicillin (50 units/mL), and streptomycin (50 μg/mL) in a 37 °C incubator containing 5% CO2. KYSE-520 and H358 cells were grown in RPMI-1640 supplemented with 10% FBS, penicillin (50 units/mL), and streptomycin (50 μg/mL) in a 37 °C incubator containing 5% CO2. For western-blot analysis, protein samples were separated by SDS-PAGE, transferred to nitrocellulose membranes, and incubated overnight at 4 °C with corresponding primary antibodies diluted in 5% BSA in phosphate-buffered saline Tween (PBST). SuperSignal™ West Pico PLUS (PI34580; Thermo Scientific) was used to visualize the antibodies in the bioanalytical imaging system (Azure Biosystems c500). Anti-p-ERK1/2 (T202/Y204) (4370), and anti-ERK1/2 (4696) were purchased from Cell Signaling Technology. Anti-GAPDH (sc-365062), anti-SHP2 (sc-7384), anti-SHP1 (sc-7289), and anti-Actin (sc-8432) antibodies were purchased from Santa Cruz. Anti-PTP1B (ab244207) antibody was purchased from Abcam. For colony formation assay, a total of approximately 200–500 cells were seeded to each well in a 12-well plate. The wells were then treated with DMSO, compound P9 and 3 at 37 °C for 3 weeks, gently washed, and stained with crystal violet.

KYSE-520 xenograft = KYSE-520 xenograft tumor growth; type: in vivo, mice; conditions: 18 days
Experimental: as §1, §2

[3] = Nude, mouse, ip, 25 mg/kg, single IP 25 mg/kg
[4] = Nude, mouse, ip, 50 mg/kg, single IP 50 mg/kg
[5] = Nude, mouse, single IP 25 mg/kg
[6] = Nude, mouse, single IP 50 mg/kg

Cc1ncsc1-c1ccc([C@H](C)NC(=O)[C@@H]2C[C@@H](O)CN2C(=O)[C@@H](NC(=O)CCCCCCCCCN2CCN(C(=O)CCCCCC3(CN)CCN(c4cnc(Sc5cccc(Cl)c5Cl)c(N)n4)CC3)CC2)C(C)(C)C)cc1 [P9, (2S,4R)-1-((S)-2-(10-(4-(6-(1-(6-amino-5-((2,3-dichlorophenyl)thio)pyrazin-2-yl)-4-(aminomethyl)piperidin-4-yl)hexanoyl)piperazin-1-yl)decanamido)-3,3-dimethylbutanoyl)-4-hydroxy-N-((S)-1-(4-(4-methylthiazol-5-yl)phenyl)ethyl)pyrrolidine-2-carboxamide]
Plasma concentration ([1]; 25 mg/kg IP, 0.5 h): 520 nM and 750 nM | Plasma concentration ([1]; 25 mg/kg IP, 1 h): 1200 nM and 1320 nM | Plasma concentration ([1]; 25 mg/kg IP, 2 h): 1090 nM and 930 nM | Plasma concentration ([1]; 25 mg/kg IP, 3 h): 620 nM and 590 nM | Plasma concentration ([1]; 25 mg/kg IP, 6 h): 410 nM and 390 nM | Plasma concentration ([1]; 25 mg/kg IP, 24 h): 130 nM and 180 nM and 60 nM | Plasma concentration ([1]; 50 mg/kg IP, 0.5 h): 1820 nM and 1960 nM | Plasma concentration ([1]; 50 mg/kg IP, 1 h): 2700 nM and 2550 nM | Plasma concentration ([1]; 50 mg/kg IP, 2 h): 1760 nM and 1700 nM | Plasma concentration ([1]; 50 mg/kg IP, 3 h): 1220 nM and 1150 nM | Plasma concentration ([1]; 50 mg/kg IP, 6 h): 700 nM and 680 nM | Plasma concentration ([1]; 50 mg/kg IP, 24 h): 160 nM and 240 nM and 100 nM | concentration at 0.5 h ([1]; Nude, mouse, 25 mg/kg, 25 mg/kg IP, 0.5 h): 560 nM | concentration at 1 h ([1]; Nude, mouse, 25 mg/kg, 25 mg/kg IP, 1 h): 1020 nM | concentration at 2 h ([1]; Nude, mouse, 25 mg/kg, 25 mg/kg IP, 2 h): 920 nM | concentration at 3 h ([1]; Nude, mouse, 25 mg/kg, 25 mg/kg IP, 3 h): 550 nM | concentration at 6 h ([1]; Nude, mouse, 25 mg/kg, 25 mg/kg IP, 6 h): 360 nM | concentration at 0.5 h ([1]; Nude, mouse, 50 mg/kg, 50 mg/kg IP, 0.5 h): 1760 nM | concentration at 1 h ([1]; Nude, mouse, 50 mg/kg, 50 mg/kg IP, 1 h): 2510 nM | concentration at 2 h ([1]; Nude, mouse, 50 mg/kg, 50 mg/kg IP, 2 h): 1660 nM | concentration at 3 h ([1]; Nude, mouse, 50 mg/kg, 50 mg/kg IP, 3 h): 1030 nM | concentration at 6 h ([1]; Nude, mouse, 50 mg/kg, 50 mg/kg IP, 6 h): 550 nM | Cmax [1, 3]: 1180 ± 130 nM | half-life [1, 3]: 3.71 ± 0.72 h | Cmax [1, 4]: 2510 ± 190 nM | half-life [1, 4]: 3.01 ± 0.48 h | AUC [1, 5]: 8.51 ± 0.6 µM·h | Tmax [1, 5]: 2 h | AUC [1, 6]: 15.1 ± 0.99 µM·h | Tmax [1, 6]: 2 h | Cmax ([1]; single IP 25 mg/kg, 25 mg/kg): 1200 ± 100 nM | t1/2 ([1]; single IP 25 mg/kg, 25 mg/kg): 3.7 ± 0.7 h | Cmax ([1]; single IP 50 mg/kg, 50 mg/kg): 2500 ± 200 nM | t1/2 ([1]; single IP 50 mg/kg, 50 mg/kg): 3.0 ± 0.5 h | tolerability [2]: well tolerated | animal body weight ([2]; during treatment): preserved; also recorded: no significant effect on mice body weight | EC50 (pERK1/2): ~240 nM | effect on tumor burden (KYSE-520 xenograft; 25 mg/kg daily IP): decrease in tumor burden | effect on tumor burden (KYSE-520 xenograft; 50 mg/kg daily IP): nearly complete tumor regression
